Laboratory results from patent publication US11530244B2, “Cyclic polypeptides for PCSK9 inhibition” (priority 2018, dated 2022).
Read-outs that look alike come from different tables or passages of the source. Starred links: 1 amine or outer side, 2 acyl side, 3 side chain; linkers in the order of their positions; H or OH if unused. Positions of bridges follow the written chain, without caps; N, C: chain ends. Non-standard residues stand in square brackets, D forms with d. Residues, ends and D or L forms follow the SMILES beside them. ξ: configuration not given here. *: point of attachment. Phe(4-guanidino) = N=C(N)Nc1ccc(C[C@H](N)C(=O)O)cc1; X58 = O=C([C@@H]1[C@H](OCC=[*:3])CCN1[*:1])[*:2]; Ala(imidazol-2-yl) = N[C@@H](Cc1ncc[nH]1)C(=O)O; Trp(5-F) = N[C@@H](Cc1c[nH]c2ccc(F)cc12)C(=O)O; dPro(cis-4-NH2) = N[C@H]1CN[C@@H](C(=O)O)C1; X3 = O=C(CCSCc1cc(F)cc(CSCCN[*:1])c1)[*:2]; X57 = O=C([C@@H](CCCCC=[*:3])N[*:1])[*:2]; Lys(Me3) = C[N+](C)(C)CCCC[C@H](N)C(=O)O; Pro(cis-4-F) = O=C(O)[C@@H]1C[C@H](F)CN1; Lys(N3) = [N-]=[N+]=NCCCC[C@H](N)C(=O)O; X4 = O=C(CCSCc1cccc(CSCCN[*:1])c1)[*:2]; mXylylene = c1cc(C[*:1])cc(C[*:2])c1; AEF = NCCOc1ccc(C[C@H](N)C(=O)O)cc1; X53 = C#CCCC[C@H](N[*:1])C(=O)[*:2]; ξAla(CF3) = NC(CC(F)(F)F)C(=O)O; aThr = C[C@H](O)[C@H](N)C(=O)O; αMeP = C[C@@]1(C(=O)O)CCCN1; Isovaleryl = CC(C)CC(=O)*; Dab = NCC[C@H](N)C(=O)O; X2 = O=C(C[*:2])[*:1]; Mpa = O=C(O)CCS

Molecular target: PCSK9 (Homo sapiens (Human), UniProt Q8NBP7)
Sequence (Q8NBP7 153-692): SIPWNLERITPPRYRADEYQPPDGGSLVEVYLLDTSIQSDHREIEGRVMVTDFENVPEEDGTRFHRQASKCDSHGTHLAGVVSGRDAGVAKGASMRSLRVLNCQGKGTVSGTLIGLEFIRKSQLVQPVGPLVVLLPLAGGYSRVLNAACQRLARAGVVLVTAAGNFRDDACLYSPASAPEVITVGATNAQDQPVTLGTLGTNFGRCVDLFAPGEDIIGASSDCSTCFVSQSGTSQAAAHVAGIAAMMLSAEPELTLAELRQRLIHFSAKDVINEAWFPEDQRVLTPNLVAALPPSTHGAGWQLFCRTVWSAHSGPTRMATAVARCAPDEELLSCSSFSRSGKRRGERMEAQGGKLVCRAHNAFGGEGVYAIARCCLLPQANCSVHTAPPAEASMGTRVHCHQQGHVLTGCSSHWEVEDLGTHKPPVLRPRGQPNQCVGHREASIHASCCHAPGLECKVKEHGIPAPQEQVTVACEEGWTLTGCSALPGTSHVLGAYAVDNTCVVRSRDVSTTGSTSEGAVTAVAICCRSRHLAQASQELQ
Assay: PCSK9 Alexa FRET Standard assay (displacement of AlexaFluor647 tagged cyclic peptide Reagent A)
Format: binding
Method: A solution containing 1 nM biotinylated PCSK9+2.5 nM Lance Streptavidin Europium (Strep-Eu) was made in 50 mM HEPES pH 7.4, 0.15 M NaCl, 5 mM CaCl2), 0.01% BSA, and 0.01% Surfactant P20. A separate solution containing 40 nM of the AlexaFluor tagged cyclic peptide was made in the same buffer system. An Echo was used to transfer 0.750 ul of compound to an assay plate followed by the addition of 15 ul of PCSK9+Stept-Eu and 15 ul of AF peptide. The final assay volume was 30.750 ul containing 0.5 nM PCSK9, 1.25 nM Strep-Eu, and 20 nM AF cyclic peptide. The reaction was incubated at room temperature for at least two hours prior to fluorescence measurements using an Envision Multilabel Reader. IC50 values were determined by fitting data to a sigmoidal dose-response curve using nonlinear regression. Ki was then calculated from the IC50 and the KD of AF cyclic peptide. Counts (B-counts) of the europium-labeled PCSK9 were followed to observe if compounds were […]. A fall off of the B-counts likely indicated a false positive of inhibition. Data from this procedure was reported as “A=‘numerical value’ (nanomolar)”

[1] = PCSK9 Alexa FRET Standard assay, 0.5 nM PCSK9, 20 nM AF cyclic peptide Reagent A, read-out: IC50

## CC(=O)N[C@H]1CCNC(=O)COc2ccc(cc2)C[C@@H](C(N)=O)NC(=O)[C@]2(C)CCCN2C(=O)[C@H](Cc2ccc(O)cc2)NC(=O)[C@H](Cc2cnc[nH]2)NC(=O)[C@H](CC(=O)O)NC(=O)[C@H](Cc2c[nH]c3ccc(F)cc23)NC(=O)[C@H](Cc2c[nH]c3ccc(F)cc23)NC(=O)CNC(=O)[C@H](C)NC1=O [Compound 352] (Ac-[Dab]AG[Trp(5-F)][Trp(5-F)]DHY[αMeP]Y-NH2; linker 1-10 via X2)
[1]
  IC50: 21 to 50 µM

## COc1ccc(C[C@@H]2NC(=O)[C@H]([C@@H](C)O)NC(=O)[C@@H]3C[C@H](F)CN3C(=O)[C@H](Cc3c[nH]c4ccc(F)cc34)NC(=O)[C@H](Cc3c[nH]c4ccc(F)cc34)NC(=O)[C@@H](C)NC(=O)[C@H](CCCCN)NC(=O)[C@@H](NC(=O)CC(C)C)CC(=O)NCCOc3ccc(cc3)C[C@@H](C(N)=O)NC(=O)[C@]3(C)CCCN3C2=O)cc1 [Compound 107] (Isovaleryl-DK[dA][Trp(5-F)][Trp(5-F)][Pro(cis-4-F)]TY(Me)[αMeP][AEF]-NH2; lactam 1-10)
[1]
  IC50: 0.1 to 1 µM

## COc1ccc(C[C@@H]2NC(=O)[C@@H]3CCCC(=O)N[C@@H]4C[C@H](C(=O)N3)N(C4)C(=O)[C@H](Cc3c[nH]c4ccc(F)cc34)NC(=O)[C@H](Cc3c[nH]c4ccc(F)cc34)NC(=O)[C@@H](C)NC(=O)[C@H](CCCCN)NC(=O)CCSCc3cccc(c3)CSCCNC(=O)[C@]3(C)CCCN3C2=O)cc1 [Compound 522]
[1]
  IC50: 0.00011 to 0.1 µM

## CC(=O)N[C@@H]1CCCC/C=C\CO[C@@H]2CCN(C(=O)[C@H](Cc3ccc(O)cc3)NC(=O)[C@H](Cc3cnc[nH]3)NC(=O)[C@H](CC(=O)O)NC(=O)[C@H](Cc3c[nH]c4ccc(F)cc34)NC(=O)[C@H](Cc3c[nH]c4ccc(F)cc34)NC(=O)CNC1=O)[C@@H]2C(N)=O [Compound 471] (Ac-[X57]G[Trp(5-F)][Trp(5-F)]DHY[X58]-NH2; staple (Z) 1-8)
[1]
  IC50: 0.00011 to 0.1 µM

## COc1ccc(C[C@@H]2NC(=O)[C@H](Cc3ncc[nH]3)NC(=O)[C@H](CC(=O)O)NC(=O)[C@H](Cc3c[nH]c4ccc(F)cc34)NC(=O)[C@H](Cc3c[nH]c4ccc(F)cc34)NC(=O)[C@@H](C)NC(=O)C(CC(F)(F)F)NC(=O)CCSCc3cccc(c3)CSCCNC(=O)[C@]3(C)CCCN3C2=O)cc1 (stereo partly shown) [Compound 443] (cyclo(D[Ala(imidazol-2-yl)]Y(Me)[αMeP][X4][ξAla(CF3)][dA][Trp(5-F)][Trp(5-F)]))
[1]
  IC50: 21 to 50 µM

## COc1ccc(C[C@@H]2NC(=O)[C@@H]([C@H](C)O)NC(=O)[C@H]3C[C@@H](N)CN3C(=O)[C@H](Cc3c[nH]c4ccc(F)cc34)NC(=O)[C@H](Cc3c[nH]c4ccc(F)cc34)NC(=O)[C@@H](C)NC(=O)[C@H](CCCCN)NC(=O)CCSCc3cc(F)cc(c3)CSCCNC(=O)[C@]3(C)CCCN3C2=O)cc1 [Compound 082] (cyclo(K[dA][Trp(5-F)][Trp(5-F)][dPro(cis-4-NH2)][dT]Y(Me)[αMeP][X3]))
[1]
  IC50: 0.1 to 1 µM

## COc1ccc(C[C@@H]2NC(=O)[C@H](Cc3cnc[nH]3)NC(=O)[C@H](CC(=O)O)NC(=O)[C@H](Cc3c[nH]c4ccc(F)cc34)NC(=O)[C@H](Cc3c[nH]c4ccc(F)cc34)NC(=O)[C@@H](C)NC(=O)[C@H](CCCC[N+](C)(C)C)NC(=O)CCSCc3cccc(c3)CSCCNC(=O)[C@]3(C)CCCN3C2=O)cc1 [Compound 461] (cyclo(DHY(Me)[αMeP][X4][Lys(Me3)][dA][Trp(5-F)][Trp(5-F)]))
[1]
  IC50: 21 to 50 µM

## C#CCCC[C@@H]1NC(=O)[C@H](Cc2c[nH]c3ccc(F)cc23)NC(=O)[C@H](CCCCN=[N+]=[N-])NC(=O)[C@@H](C)NC(=O)[C@H](CCCCN)NC(=O)CCSCc2cccc(c2)CSCCNC(=O)[C@]2(C)CCCN2C(=O)[C@H](Cc2ccc(OC)cc2)NC(=O)[C@H]([C@H](C)O)NC1=O [Compound 074] (cyclo(K[dA][Lys(N3)][Trp(5-F)][X53][aThr]Y(Me)[αMeP][X4]))
IC50
  IC50: 21 to 50 µM

## COc1ccc(C[C@@H]2NC(=O)[C@H](Cc3ncc[nH]3)NC(=O)[C@H](CC(=O)O)NC(=O)[C@H](Cc3c[nH]c4ccc(F)cc34)NC(=O)[C@H](Cc3c[nH]c4ccc(F)cc34)NC(=O)[C@@H](C)NC(=O)[C@H](Cc3ccc(N=C(N)N)cc3)NC(=O)CCSCc3cccc(c3)CSCCNC(=O)[C@]3(C)CCCN3C2=O)cc1 [Compound 441] (cyclo(D[Ala(imidazol-2-yl)]Y(Me)[αMeP][X4][Phe(4-guanidino)][dA][Trp(5-F)][Trp(5-F)]))
[1]
  IC50: 21 to 50 µM

## CO[C@H](C)[C@@H]1NC(=O)CCSCc2cccc(c2)CSC[C@@H](C(N)=O)NC(=O)[C@]2(C)CCCN2C(=O)[C@H](Cc2ccc(O)cc2)NC(=O)[C@H](Cc2cnc[nH]2)NC(=O)[C@H](CC(=O)O)NC(=O)[C@H](Cc2c[nH]c3ccc(F)cc23)NC(=O)[C@H](Cc2c[nH]c3ccc(F)cc23)NC(=O)CNC1=O [Compound 375] ([Mpa]T(Me)G[Trp(5-F)][Trp(5-F)]DHY[αMeP]C-NH2; linker 1-10 via mXylylene)
[1]
  IC50: 21 to 50 µM
